Publication PMC2867246 (Biochemistry, 2010)

Key:
[1] = tested on: N-type calcium channels (CaV2.2); format: cell-based; settings: pH 7.4
Swiss Webster mice = settings: mouse, in vivo
CaV2.2 = settings: cited from earlier work

Substance: ω-conotoxin GVIA
- percentage block of N-current [1]: 98.5 ± 1.0 percentage
- behavior after injection (Swiss Webster mice): shaking syndrome
- behavior at higher concentrations (Swiss Webster mice): passive behavior with a backwards leg-extension
- duration of shaking behavior (Swiss Webster mice): lasted for more than a day
- affinity for CaV2.2, in words (CaV2.2): high affinity
